Laboratory results as given in patent publication US7612065B2, “Inhibitors of c-JUN N-terminal kinases (JNK)” (priority 2007, dated 2009).

These compounds were tested against T1, JNK3 (Homo sapiens, UniProt P53779) (assay: JNK inhibition assay: spectrophotometric coupled-enzyme assay with activated JNK3). Conditions: activated JNK3 10 nM, 10 μM ATP, 200 μM EGF receptor peptide, 30° C., competitive inhibition model.
T1 construct: One such construct encodes amino acid residues Ser40-Glu402 of JNK3α1 and is preceded by Met and Gly residues; Met-Gly (initiation methionine plus glycine added for the NcoI site); made in house; host or cells: E. coli BL21 (DE3)
Type: biochemical
Excerpt: A BLAST search of the EST database using the published JNK3α1 cDNA as a query identified an EST clone (#632588) that contained the entire coding sequence for human JNK3α1. Polymerase chain reactions (PCR) using pfu polymerase (Strategene) were used to introduce restriction sites into the cDNA for cloning into the pET-15B expression vector at the NcoI and BamHI sites. The protein was expressed in E. coli. […] This truncation corresponds to Ser 2 of JNK1 and JNK2 proteins, and is preceded by a methionine (initiation) and a glycine residue. The glycine residue was added in order to introduce an NcoI site for cloning into the expression vector. In addition, systematic C-terminal truncations were performed by PCR to identify a construct that give rise to diffraction-quality crystals.
5 mg of JNK3 was diluted to 0.5 mg/ml in 50 mM HEPES buffer, pH 7.5, containing 100 mM NaCl, 5 mM DTT, 20 mM MgCl2 and 1 mM ATP. GST-MKK7(DD) was added at a molar ratio of 1:2.5 GST-MKK7:JNK3. After incubation for 30 minutes at 25° C., the reaction mixture was concentrated 5-fold by ultrafiltration in a Centriprep-30 (Amicon, Beverly, Mass.), diluted to 10 ml and an additional 1 mM ATP added. This procedure was repeated three times to remove ADP and replenish ATP. The final addition of ATP was 5 mM and the mixture incubated overnight at 4° C.
The activated JNK3/GST-MKK7(DD) reaction mixture was exchanged into 50 mM HEPES buffer, pH 7.5, containing 5 mM DTT and 5% glycerol (w/v) by dialysis or ultrafiltration. The reaction mixture was adjusted to 1.1 M potassium phosphate, pH 7.5, and purified by hydrophobic interaction chromatography (at 25° C.) using a Rainin Hydropore column. […] Activated JNK3 (i.e. doubly phosphorylated JNK3) was stored at −70° C. at 0.25-1 mg/ml.
Compounds were assayed for the inhibition of JNK3 by a spectrophotometric coupled-enzyme assay. In this assay, a fixed concentration of activated JNK3 (10 nM) was incubated with various concentrations of a potential inhibitor dissolved in DMSO for 10 minutes at 30° C. in a buffer containing 0.1 M HEPES buffer, pH 7.5, containing 10 mM MgCl2, 2.5 mM phosphoenolpyruvate, 200 μM NADH, 150 μg/mL pyruvate kinase, 50 μg/mL lactate dehydrogenase, and 200 μM EGF receptor peptide. […] The reaction was initiated by the addition of 10 μM ATP and the assay plate is inserted into the spectrophotometer's assay plate compartment that was maintained at 30° C. The decrease of absorbance at 340 nm was monitored as a function of time. The rate data as a function of inhibitor concentration was fitted to competitive inhibition kinetic model to determine the Ki.

T1 sequence (P53779 40-402): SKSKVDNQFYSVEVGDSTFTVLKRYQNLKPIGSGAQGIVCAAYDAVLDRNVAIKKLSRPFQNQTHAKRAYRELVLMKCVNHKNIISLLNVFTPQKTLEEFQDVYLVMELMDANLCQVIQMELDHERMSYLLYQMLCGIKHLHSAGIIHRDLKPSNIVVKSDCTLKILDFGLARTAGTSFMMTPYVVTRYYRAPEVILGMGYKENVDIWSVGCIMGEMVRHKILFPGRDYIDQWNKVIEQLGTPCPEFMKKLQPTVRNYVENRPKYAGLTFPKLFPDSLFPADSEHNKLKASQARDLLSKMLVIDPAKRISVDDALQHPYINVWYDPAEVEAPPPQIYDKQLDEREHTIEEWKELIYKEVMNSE

Row | Compound | Ki [nM]
1 | O=C1/C(=N\O)c2cc(F)ccc2N1Cc1ccc([N+](=O)[O-])cc1 [Compound 55] | ≥ 1000
2 | Cc1ccc(CN2C(=O)/C(=N\O)c3cc(F)ccc32)cc1 [Compound 56] | ≥ 1000
3 | Cc1cccc(CN2C(=O)/C(=N\O)c3cc(F)ccc32)c1 [Compound 57] | ≥ 1000
4 | O=C1/C(=N\O)c2cc(F)ccc2N1Cc1cccc(F)c1 [Compound 58] | ≥ 1000
5 | O=C1/C(=N\O)c2cc(F)ccc2N1Cc1ccccc1F [Compound 59] | ≥ 1000
6 | COc1ccc(CN2C(=O)/C(=N\O)c3ccccc32)cc1 [Compound 61] | ≥ 1000
7 | N#Cc1ccccc1CN1C(=O)/C(=N\O)c2ccccc21 [Compound 63] | ≥ 1000
8 | COc1ccccc1-c1nc(CN2C(=O)/C(=N\O)c3ccccc32)no1 [Compound 64] | ≥ 1000
9 | COc1ccc(-c2nc(CN3C(=O)/C(=N\O)c4ccccc43)no2)cc1 [Compound 65] | ≥ 1000
10 | O=C1/C(=N\O)c2ccccc2N1Cc1cccc(Oc2ccccc2)c1 [Compound 66] | ≥ 1000
11 | CS(=O)(=O)c1ccc(CN2C(=O)/C(=N\O)c3ccccc32)cc1 [Compound 67] | ≥ 1000
12 | O=C1/C(=N\O)c2ccccc2N1Cc1ncc(C(F)(F)F)cc1Cl [Compound 70] | ≥ 1000
13 | O=C1/C(=N\O)c2ccccc2N1Cc1csc(-c2ccc(Cl)cc2)n1 [Compound 71] | ≥ 1000
14 | COc1ccc(CN2C(=O)/C(=N\O)c3cc(Cl)ccc32)cc1 [Compound 72] | ≥ 1000
15 | O=C1/C(=N\O)c2cc(Cl)ccc2N1Cc1cccc(Oc2ccccc2)c1 [Compound 73] | ≥ 1000
16 | O=C1/C(=N\O)c2cc(Cl)ccc2N1Cc1ccccn1 [Compound 76] | ≥ 1000
17 | COc1ccc(CN2C(=O)/C(=N\O)c3cc(F)ccc32)cc1 [Compound 78] | ≥ 1000
18 | O=C1/C(=N\O)c2cc(F)ccc2N1Cc1cccc([N+](=O)[O-])c1 [Compound 79] | ≥ 1000
19 | N#Cc1ccccc1CN1C(=O)/C(=N\O)c2cc(F)ccc21 [Compound 80] | ≥ 1000
20 | COc1ccccc1-c1nc(CN2C(=O)/C(=N\O)c3cc(F)ccc32)no1 [Compound 81] | ≥ 1000
21 | O=C1/C(=N\O)c2cc(F)ccc2N1Cc1cccc(Oc2ccccc2)c1 [Compound 82] | ≥ 1000
22 | CS(=O)(=O)c1ccc(CN2C(=O)/C(=N\O)c3cc(F)ccc32)cc1 [Compound 83] | ≥ 1000
23 | O=C1/C(=N\O)c2cc(F)ccc2N1Cc1csc(-c2ccc(Cl)cc2)n1 [Compound 86] | ≥ 1000
24 | COc1ccc(CN2C(=O)/C(=N\O)c3cc(C)cc(C)c32)cc1 [Compound 87] | ≥ 1000
25 | Cc1cc(C)c2c(c1)/C(=N/O)C(=O)N2Cc1cccc([N+](=O)[O-])c1 [Compound 88] | ≥ 1000
26 | Cc1cc(C)c2c(c1)/C(=N/O)C(=O)N2Cc1ccccc1C#N [Compound 89] | ≥ 1000
27 | COc1ccccc1-c1nc(CN2C(=O)/C(=N\O)c3cc(C)cc(C)c32)no1 [Compound 90] | ≥ 1000
28 | COc1ccc(-c2nc(CN3C(=O)/C(=N\O)c4cc(C)cc(C)c43)no2)cc1 [Compound 91] | ≥ 1000
29 | Cc1cc(C)c2c(c1)/C(=N/O)C(=O)N2Cc1cccc(Oc2ccccc2)c1 [Compound 92] | ≥ 1000
30 | Cc1cc(C)c2c(c1)/C(=N/O)C(=O)N2Cc1ccc(S(C)(=O)=O)cc1 [Compound 93] | ≥ 1000

Now from value to compound:

Row | Ki [nM] | Compound
31 | ≥ 1000 | Cc1ccc2c(c1)/C(=N/O)C(=O)N2Cc1cccc(C(F)(F)F)c1 [Compound 1]
32 | < 1000 | O=C1/C(=N\O)c2ccccc2N1Cc1c(Cl)cccc1Cl [Compound 2]
33 | ≥ 1000 | O=C1/C(=N\O)c2cc(Cl)ccc2N1Cc1ccc(Cl)cc1 [Compound 3]
34 | < 1000 | O=C1/C(=N\O)c2cc(Cl)ccc2N1Cc1c(Cl)cccc1Cl [Compound 4]
35 | < 1000 | O=C1/C(=N\O)c2ccccc2N1Cc1ccc(Cl)c(Cl)c1 [Compound 5]
36 | ≥ 1000 | O=C1/C(=N\O)c2ccccc2N1Cc1cccc(C(F)(F)F)c1 [Compound 6]
37 | < 1000 | O=C1/C(=N\O)c2ccccc2N1Cc1ccc(Cl)cc1Cl [Compound 7]
38 | ≥ 1000 | Cc1ccc(CN2C(=O)/C(=N\O)c3ccccc32)cc1 [Compound 8]
39 | ≥ 1000 | O=C1/C(=N\O)c2ccccc2N1Cc1cccc(Cl)c1 [Compound 9]
40 | ≥ 1000 | O=C1/C(=N\O)c2ccccc2N1Cc1ccc(Cl)cc1 [Compound 10]
41 | ≥ 1000 | O=C1/C(=N\O)c2cc([N+](=O)[O-])ccc2N1Cc1ccc(Cl)cc1Cl [Compound 11]
42 | ≥ 1000 | O=C1/C(=N\O)c2cc([N+](=O)[O-])ccc2N1Cc1ccc(Cl)cc1 [Compound 12]
43 | < 1000 | O=C1/C(=N\O)c2cc(Cl)ccc2N1Cc1ccc(Cl)c(Cl)c1 [Compound 13]
44 | ≥ 1000 | Cc1ccc2c(c1)/C(=N/O)C(=O)N2Cc1ccc(Cl)cc1 [Compound 14]
45 | ≥ 1000 | O=C1/C(=N\O)c2cc(Cl)ccc2N1Cc1cccc(C(F)(F)F)c1 [Compound 15]
46 | ≥ 1000 | O=C1/C(=N\O)c2ccccc2N1Cc1ccc(F)cc1 [Compound 17]
47 | ≥ 1000 | O=C1/C(=N\O)c2ccccc2N1Cc1ccc([N+](=O)[O-])cc1 [Compound 18]
48 | ≥ 1000 | Cc1cccc(CN2C(=O)/C(=N\O)c3ccccc32)c1 [Compound 19]
49 | ≥ 1000 | O=C1/C(=N\O)c2ccccc2N1Cc1cccc(F)c1 [Compound 20]
50 | ≥ 1000 | O=C1/C(=N\O)c2ccccc2N1Cc1ccccc1F [Compound 21]
51 | ≥ 1000 | O=C1/C(=N\O)c2cc(Br)ccc2N1Cc1ccccc1 [Compound 23]
52 | ≥ 1000 | O=C1/C(=N\O)c2cc(Br)ccc2N1Cc1ccc(F)cc1 [Compound 24]
53 | ≥ 1000 | O=C1/C(=N\O)c2cc(Br)ccc2N1Cc1ccc([N+](=O)[O-])cc1 [Compound 25]

Row | Ki [nM] | Compound
54 | ≥ 1000 | Cc1ccc(CN2C(=O)/C(=N\O)c3cc(Br)ccc32)cc1 [Compound 26]
55 | ≥ 1000 | Cc1cccc(CN2C(=O)/C(=N\O)c3cc(Br)ccc32)c1 [Compound 27]
56 | ≥ 1000 | O=C1/C(=N\O)c2cc(Br)ccc2N1Cc1cccc(F)c1 [Compound 28]
57 | ≥ 1000 | O=C1/C(=N\O)c2cc(Br)ccc2N1Cc1ccccc1F [Compound 29]
58 | ≥ 1000 | Cc1ccc(CN2C(=O)/C(=N\O)c3cc([N+](=O)[O-])ccc32)cc1 [Compound 33]
59 | ≥ 1000 | Cc1cccc(CN2C(=O)/C(=N\O)c3cc([N+](=O)[O-])ccc32)c1 [Compound 34]
60 | ≥ 1000 | Cc1ccc2c(c1)/C(=N/O)C(=O)N2Cc1ccc([N+](=O)[O-])cc1 [Compound 39]
61 | ≥ 1000 | O=C1/C(=N\O)c2cc(Cl)ccc2N1Cc1ccccc1 [Compound 45]
62 | ≥ 1000 | O=C1/C(=N\O)c2cc(Cl)ccc2N1Cc1ccc(F)cc1 [Compound 46]
63 | ≥ 1000 | Cc1ccc(CN2C(=O)/C(=N\O)c3cc(Cl)ccc32)cc1 [Compound 48]
64 | ≥ 1000 | Cc1cccc(CN2C(=O)/C(=N\O)c3cc(Cl)ccc32)c1 [Compound 49]
65 | ≥ 1000 | O=C1/C(=N\O)c2cc(Cl)ccc2N1Cc1cccc(F)c1 [Compound 50]
66 | ≥ 1000 | O=C1/C(=N\O)c2cc(Cl)ccc2N1Cc1ccccc1F [Compound 51]
67 | ≥ 1000 | O=C1/C(=N\O)c2cc(F)ccc2N1Cc1ccc(F)cc1 [Compound 54]
68 | < 1000 | O=C1/C(=N\O)c2ccccc2N1Cc1cccc([N+](=O)[O-])c1 [Compound 62]
69 | < 1000 | COc1cc(CN2C(=O)/C(=N\O)c3ccccc32)cc(OC)c1 [Compound 68]
70 | < 1000 | O=C1/C(=N\O)c2ccccc2N1Cc1cc(F)cc2c1OCOC2 [Compound 69]
71 | < 1000 | COc1cc(CN2C(=O)/C(=N\O)c3cc(Cl)ccc32)cc(OC)c1 [Compound 74]
72 | < 1000 | O=C1/C(=N\O)c2cc(Cl)ccc2N1Cc1cc(F)cc2c1OCCO2 [Compound 75]
73 | < 1000 | O=C1/C(=N\O)c2cc(Cl)ccc2N1Cc1csc(-c2ccc(Cl)cc2)n1 [Compound 77]
74 | < 1000 | COc1cc(CN2C(=O)/C(=N\O)c3cc(F)ccc32)cc(OC)c1 [Compound 84]
75 | < 1000 | O=C1/C(=N\O)c2cc(F)ccc2N1Cc1cc(F)cc2c1OCOC2 [Compound 85]
